# Source: US20150125425A1, “TREATMENT OF LIVER CANCER” (priority 2012, published 2015)
# How the values were obtained:
# HCC = conditions: monotherapy of HCC; cited from earlier work
# HuH7 xenografts = experiment: HSV1716 in combination with sorafenib in vivo in subcutaneous flank HuH7 xenografts; parameters: species or system nude mice
# Description: Female 6-8 week old athymic nude mice (Charles River Labs, UK) were maintained under specific pathogen free conditions. Actively growing HuH7 cells were harvested and, after re-suspension in PBS, 1×10^6 cells per mouse were injected subcutaneously. Treatments were started when tumours reached 5 mm in diameter. Mice were inspected daily, when tumour diameters reached 15 mm they were sacrificed and the tumour xenograft removed for viral extraction. The viral load in tumours and various organs was assessed by plaque forming assay on Vero cells. Extracted intact tumours/organs were frozen immediately at −70° C. and, after thawing, the tissues were mechanically homogenized in a Retsch homogenizer in 1 ml PBS prior to titration.
# Sorafenib for IP injections was obtained from Selleckchem UK, (S1040), and was reported as 100% pure. The dose was 10 mg/kg equivalent to 10 μg/g or 250 μg/mouse (25 g). The 0.1 ml intraperitoneal dose therefore required 250 μg/0.1 ml or 2.5 mg/ml. 50 mg sorafenib was dissolved in 0.5 ml DMSO and this was added to 19.5 ml PBS with 5% Tween80 and 5% PEG400 (both v/v). This is equivalent to c4 mM sorafenib. HSV1716gCluc which expresses luciferase from the HSV-1 gC promoter. The stock virus solution was 8×10^7 pfu/ml and 0.125 ml virus stock were added to 10 ml compound sodium lactate with 10% glycerol to give the injection solution at a titre of 1×10^6 pfu/ml. 0.1 ml injected it/mouse and is equivalent to 1×10^5 pfu.
# In vivo combination with sorafenib and HSV1716 was analysed using the HuH7 subcutaneous xenograft HCC model in nude mice. Groups were—no treatment (n=10), sorafenib (n=6), HSV1716 (n=10), HSV1716 sorafenib (n=12). HSV1716gC-luc at 1×10^5 pfu was given on days 1, 3 and 9 and sorafenib at 10 mg/kg (Liu et al Cancer Res 2006; 66:11851-11858), was administered IP (Wang et al., Cancer Biol & Therapy 2011; 12:3, 229-238) every 2nd day from day 2 on 9 occasions. Virus was monitored by IVIS and tumour growth (FIG. 37) and survival (FIG. 38) were recorded.
smiles,measurement,setting,value
"CNC(=O)c1cc(Oc2ccc(NC(=O)Nc3ccc(Cl)c(C(F)(F)F)c3)cc2)ccn1 [sorafenib, 4-[4-[[4-chloro-3-(trifluoromethyl)phenyl]carbamoylamino]phenoxy]-N-methyl-pyridine-2-carboxamide]",prolongation of median survival and the time to progression,HCC,~3 months
same,reduction of the risk of death during year 1,HCC,31%
same,xenograft growth,HuH7 xenografts; HuH7 xenografts (FIG. 37),inhibited
same,mouse survival,HuH7 xenografts; HuH7 xenografts (FIG. 38),survived longer than controls
same,period in which no mice died,"HuH7 xenografts; HuH7 xenografts (FIG. 38), virus 1×10^5 pfu days 1, 3, 9, sorafenib 10 mg/kg IP",about 4 days
